{"source": "ChEMBL document CHEMBL5120927", "about": "“LEGO-Lipophosphonoxins: A Novel Approach in Designing Membrane Targeting Antimicrobials” (J Med Chem, 2022)"}
{"system": "Escherichia coli", "assay": "Antibacterial activity against multidrug-resistant Escherichia coli CE5556 expressing CTX-M-15 assessed as reduction in microbial growth incubated for 24 hrs by microdilution assay", "type": "functional", "conditions": "not given", "units": {"MIC": "µg/mL"}}
{"compound": "CCCCCCOP(=O)(CCN(CCN)CCN)OCCCCCCCCOP(=O)(CCN(CCN)CCN)OCCCCCC.Cl.Cl.Cl.Cl.Cl.Cl", "note": "(stereo unspecified)", "MIC": 64}
{"compound": "Cl.Cl.Cl.Cl.Cl.Cl.N=C(N)NCCCN(CCCNC(=N)N)CCP(=O)(OCCCCCOP(=O)(CCN(CCCNC(=N)N)CCCNC(=N)N)OCC12CC3CC(CC(C3)C1)C2)OCC12CC3CC(CC(C3)C1)C2", "note": "(stereo unspecified)", "MIC": 1}
{"system": "Pseudomonas aeruginosa", "assay": "Antibacterial activity against multidrug-resistant Pseudomonas aeruginosa assessed as reduction in microbial growth incubated for 24 hrs by microdilution assay", "type": "functional", "conditions": "not given", "units": {"MIC": "µg/mL"}}
{"compound": "CCCCCCOP(=O)(CCN(CCN)CCN)OCCCCCCCCOP(=O)(CCN(CCN)CCN)OCCCCCC.Cl.Cl.Cl.Cl.Cl.Cl", "note": "(stereo unspecified)", "MIC": 64}
{"compound": "Cl.Cl.Cl.Cl.Cl.Cl.N=C(N)NCCCN(CCCNC(=N)N)CCP(=O)(OCCCCCOP(=O)(CCN(CCCNC(=N)N)CCCNC(=N)N)OCC12CC3CC(CC(C3)C1)C2)OCC12CC3CC(CC(C3)C1)C2", "note": "(stereo unspecified)", "MIC": 8}
{"system": "Staphylococcus aureus", "assay": "Antibacterial activity against Staphylococcus aureus ATCC 29213 = CCM 4223 assessed as inhibition of bacterial growth incubated for 24 hrs in presence of BSA by microdilution assay", "type": "functional", "conditions": "not given", "units": {"MIC": "µg/mL"}}
{"compound": "CCCCCCOP(=O)(CCN(CCN)CCN)OCCCCCCCCOP(=O)(CCN(CCN)CCN)OCCCCCC.Cl.Cl.Cl.Cl.Cl.Cl", "note": "(stereo unspecified)", "MIC": 1}
{"compound": "Cl.Cl.Cl.Cl.Cl.Cl.N=C(N)NCCCN(CCCNC(=N)N)CCP(=O)(OCCCCCOP(=O)(CCN(CCCNC(=N)N)CCCNC(=N)N)OCC12CC3CC(CC(C3)C1)C2)OCC12CC3CC(CC(C3)C1)C2", "note": "(stereo unspecified)", "MIC": 0.5}
{"system": "Enterococcus faecium", "assay": "Antibacterial activity against vancomycin resistant Enterococcus faecium 419/ANA assessed as reduction in microbial growth incubated for 24 hrs by microdilution assay", "type": "functional", "conditions": "not given", "units": {"MIC": "µg/mL"}}
{"compound": "CCCCCCOP(=O)(CCN(CCN)CCN)OCCCCCCCCOP(=O)(CCN(CCN)CCN)OCCCCCC.Cl.Cl.Cl.Cl.Cl.Cl", "note": "(stereo unspecified)", "MIC": 128}
{"compound": "Cl.Cl.Cl.Cl.Cl.Cl.N=C(N)NCCCN(CCCNC(=N)N)CCP(=O)(OCCCCCOP(=O)(CCN(CCCNC(=N)N)CCCNC(=N)N)OCC12CC3CC(CC(C3)C1)C2)OCC12CC3CC(CC(C3)C1)C2", "note": "(stereo unspecified)", "MIC": 8}
{"system": "Escherichia coli", "assay": "Antibacterial activity against Escherichia coli ATCC 25922 = CCM 3954 assessed as inhibition of bacterial growth incubated for 24 hrs by microdilution assay", "type": "functional", "conditions": "not given", "units": {"MIC": "µg/mL"}}
{"compound": "CCCCCCOP(=O)(CCN(CCN)CCN)OCCCCCCCCOP(=O)(CCN(CCN)CCN)OCCCCCC.Cl.Cl.Cl.Cl.Cl.Cl", "note": "(stereo unspecified)", "MIC": 8}
{"compound": "Cl.Cl.Cl.Cl.Cl.Cl.N=C(N)NCCCN(CCCNC(=N)N)CCP(=O)(OCCCCCOP(=O)(CCN(CCCNC(=N)N)CCCNC(=N)N)OCC12CC3CC(CC(C3)C1)C2)OCC12CC3CC(CC(C3)C1)C2", "note": "(stereo unspecified)", "MIC": 1}
{"system": "Pseudomonas aeruginosa", "assay": "Antibacterial activity against Pseudomonas aeruginosa ATCC 27853 = CCM 3955 assessed as inhibition of bacterial growth incubated for 24 hrs by microdilution assay", "type": "functional", "conditions": "not given", "units": {"MIC": "µg/mL"}}
{"compound": "CCCCCCOP(=O)(CCN(CCN)CCN)OCCCCCCCCOP(=O)(CCN(CCN)CCN)OCCCCCC.Cl.Cl.Cl.Cl.Cl.Cl", "note": "(stereo unspecified)", "MIC": 32}
{"compound": "Cl.Cl.Cl.Cl.Cl.Cl.N=C(N)NCCCN(CCCNC(=N)N)CCP(=O)(OCCCCCOP(=O)(CCN(CCCNC(=N)N)CCCNC(=N)N)OCC12CC3CC(CC(C3)C1)C2)OCC12CC3CC(CC(C3)C1)C2", "note": "(stereo unspecified)", "MIC": 8}
{"system": "Staphylococcus aureus", "assay": "Antibacterial activity against Staphylococcus aureus ATCC 29213 = CCM 4223 assessed as inhibition of bacterial growth incubated for 24 hrs by microdilution assay", "type": "functional", "conditions": "not given", "units": {"MIC": "µg/mL"}}
{"compound": "CCCCCCOP(=O)(CCN(CCN)CCN)OCCCCCCCCOP(=O)(CCN(CCN)CCN)OCCCCCC.Cl.Cl.Cl.Cl.Cl.Cl", "note": "(stereo unspecified)", "MIC": 2}
{"compound": "Cl.Cl.Cl.Cl.Cl.Cl.N=C(N)NCCCN(CCCNC(=N)N)CCP(=O)(OCCCCCOP(=O)(CCN(CCCNC(=N)N)CCCNC(=N)N)OCC12CC3CC(CC(C3)C1)C2)OCC12CC3CC(CC(C3)C1)C2", "note": "(stereo unspecified)", "MIC": 1}
{"system": "not listed separately", "assay": "Gradient chromatographic hydrophobicity index of the compound at pH 3.7 by HPLC analysis", "type": "ADME", "conditions": "not given"}
{"compound": "CCCCCCOP(=O)(CCN(CCN)CCN)OCCCCCCCCOP(=O)(CCN(CCN)CCN)OCCCCCC.Cl.Cl.Cl.Cl.Cl.Cl", "note": "(stereo unspecified)", "CHI": 38.6}
{"compound": "Cl.Cl.Cl.Cl.Cl.Cl.N=C(N)NCCCN(CCCNC(=N)N)CCP(=O)(OCCCCCOP(=O)(CCN(CCCNC(=N)N)CCCNC(=N)N)OCC12CC3CC(CC(C3)C1)C2)OCC12CC3CC(CC(C3)C1)C2", "note": "(stereo unspecified)", "CHI": 333}
{"system": "Staphylococcus epidermidis", "assay": "Antibacterial activity against Staphylococcus epidermidis CCM 7221 assessed as inhibition of bacterial growth incubated for 24 hrs by microdilution assay", "type": "functional", "conditions": "not given", "units": {"MIC": "µg/mL"}}
{"compound": "CCCCCCOP(=O)(CCN(CCN)CCN)OCCCCCCCCOP(=O)(CCN(CCN)CCN)OCCCCCC.Cl.Cl.Cl.Cl.Cl.Cl", "note": "(stereo unspecified)", "MIC": 2}
{"compound": "Cl.Cl.Cl.Cl.Cl.Cl.N=C(N)NCCCN(CCCNC(=N)N)CCP(=O)(OCCCCCOP(=O)(CCN(CCCNC(=N)N)CCCNC(=N)N)OCC12CC3CC(CC(C3)C1)C2)OCC12CC3CC(CC(C3)C1)C2", "note": "(stereo unspecified)", "MIC": 0.5}
{"system": "Staphylococcus aureus", "assay": "Antibacterial activity against methicillin resistant Staphylococcus aureus 4591/A assessed as reduction in microbial growth incubated for 24 hrs by microdilution assay", "type": "functional", "conditions": "not given", "units": {"MIC": "µg/mL"}}
{"compound": "CCCCCCOP(=O)(CCN(CCN)CCN)OCCCCCCCCOP(=O)(CCN(CCN)CCN)OCCCCCC.Cl.Cl.Cl.Cl.Cl.Cl", "note": "(stereo unspecified)", "MIC": 2}
{"compound": "Cl.Cl.Cl.Cl.Cl.Cl.N=C(N)NCCCN(CCCNC(=N)N)CCP(=O)(OCCCCCOP(=O)(CCN(CCCNC(=N)N)CCCNC(=N)N)OCC12CC3CC(CC(C3)C1)C2)OCC12CC3CC(CC(C3)C1)C2", "note": "(stereo unspecified)", "MIC": 1}
{"system": "Escherichia coli", "assay": "Antibacterial activity against Escherichia coli ATCC 25922 = CCM 3954 assessed as inhibition of bacterial growth incubated for 24 hrs in presence of BSA by microdilution assay", "type": "functional", "conditions": "not given", "units": {"MIC": "µg/mL"}}
{"compound": "CCCCCCOP(=O)(CCN(CCN)CCN)OCCCCCCCCOP(=O)(CCN(CCN)CCN)OCCCCCC.Cl.Cl.Cl.Cl.Cl.Cl", "note": "(stereo unspecified)", "MIC": 16}
{"compound": "Cl.Cl.Cl.Cl.Cl.Cl.N=C(N)NCCCN(CCCNC(=N)N)CCP(=O)(OCCCCCOP(=O)(CCN(CCCNC(=N)N)CCCNC(=N)N)OCC12CC3CC(CC(C3)C1)C2)OCC12CC3CC(CC(C3)C1)C2", "note": "(stereo unspecified)", "MIC": 2}
{"system": "Enterococcus faecalis", "assay": "Antibacterial activity against Enterococcus faecalis ATCC 29212 = CCM 4224 assessed as inhibition of bacterial growth incubated for 24 hrs by microdilution assay", "type": "functional", "conditions": "not given", "units": {"MIC": "µg/mL"}}
{"compound": "CCCCCCOP(=O)(CCN(CCN)CCN)OCCCCCCCCOP(=O)(CCN(CCN)CCN)OCCCCCC.Cl.Cl.Cl.Cl.Cl.Cl", "note": "(stereo unspecified)", "MIC": 16}
{"compound": "Cl.Cl.Cl.Cl.Cl.Cl.N=C(N)NCCCN(CCCNC(=N)N)CCP(=O)(OCCCCCOP(=O)(CCN(CCCNC(=N)N)CCCNC(=N)N)OCC12CC3CC(CC(C3)C1)C2)OCC12CC3CC(CC(C3)C1)C2", "note": "(stereo unspecified)", "MIC": 4}
{"system": "not listed separately", "assay": "Hemolytic activity in human RBC assessed as haemoglobin release measured after 3 hr", "type": "toxicity, cell-based, Erythrocyte", "conditions": "red blood cells (erythrocytes)", "units": {"HC50 at 3 h": "µg/mL"}}
{"compound": "CCCCCCOP(=O)(CCN(CCN)CCN)OCCCCCCCCOP(=O)(CCN(CCN)CCN)OCCCCCC.Cl.Cl.Cl.Cl.Cl.Cl", "note": "(stereo unspecified)", "HC50 at 3 h": 231}
{"compound": "Cl.Cl.Cl.Cl.Cl.Cl.N=C(N)NCCCN(CCCNC(=N)N)CCP(=O)(OCCCCCOP(=O)(CCN(CCCNC(=N)N)CCCNC(=N)N)OCC12CC3CC(CC(C3)C1)C2)OCC12CC3CC(CC(C3)C1)C2", "note": "(stereo unspecified)", "HC50 at 3 h": 259}
